Measured values reported in ChEMBL document CHEMBL1124087, “Chemistry and positive inotropic effect of pelrinone and related derivatives. A novel class of 2-methylpyrimidones as inotropic agents” (J Med Chem, 1988).
Values joined by “and” are separate entries in the source; they are usually repeats but may differ in a detail not shown here. Identical values can stand only once.

Assays:
Felis catus [1] = organism: Felis catus; assay: In vitro inotropic effect in cat papillary muscle; format: functional
Felis catus [2] = organism: Felis catus; assay: (§1) Ratio of Chronotropic (C) EC50 to inotropic (I) EC50; format: functional
Felis catus [3] = organism: Felis catus; assay: The inotropic activity was assayed in vitro in cat papillary muscle; format: functional, Muscle tissue
Canis familiaris [4] = assay: (§2) Reduced arterial blood pressure after Id administration in dogs with pentobarbital-induced heart failure; format: functional; settings: Canis lupus familiaris
Canis familiaris [5] = assay: Inotropic effect in the dogs with pentobarbtial-induced heart failure, id administration; format: functional; settings: Canis lupus familiaris
Canis familiaris [6] = organism: Canis familiaris; assay: (§3) ED20/ED50 ratio (BP/ inotropic) of the compound; format: functional, Canis lupus familiaris
Canis familiaris [7] = assay: as §2; format: functional; settings: Canis lupus familiaris; remark: listed apart in the source
Felis catus [8] = organism: Felis catus; assay: Chronotropic effects were assayed in vitro in the isolated right artium of the cat.; format: functional
[9] = (§4) Inhibition of bovine cardiac phosphodiesterase fraction III; design: species or system Bos taurus
Canis familiaris [10] = assay: Inotropic effect in anesthetized dogs; format: functional; settings: Canis lupus familiaris
[11] = (§5) Inhibition of crude bovine cardiac phosphodiesterase; design: species or system Bos taurus
Canis familiaris [12] = assay: Inotropic effect in dogs with pentobarbital-induced heart failure, iv administration; format: functional; settings: Canis lupus familiaris
Felis catus [13] = organism: Felis catus; assay: Ratio of Chronotropic (C) EC50 to inotropic (I) EC50
Felis catus [14] = organism: Felis catus; assay: In vitro chronotropic effect in right artium of cat (Inactive); format: functional; note: test concentration or dose not given here
Felis catus [15] = organism: Felis catus; assay: In vitro inotropic effect in cat papillary muscle (Inactive); format: functional, Muscle tissue
Canis familiaris [16] = assay: Inotropic effect in dogs with pentobarbitial-induced heart failure, iv administration; format: functional; settings: Canis lupus familiaris
Canis familiaris [17] = assay: Inotropic effect in dogs with pentobarbtial-induced heart failure, iv administration; format: functional; settings: Canis lupus familiaris
Canis familiaris [18] = assay: as §2; format: functional; settings: Canis lupus familiaris; remark: listed apart in the source
Canis familiaris [19] = organism: Canis familiaris; assay: as §3; format: functional, Canis lupus familiaris; remark: listed apart in the source
Phosphodiesterase 3B = Phosphodiesterase 3B (Bos taurus, UniProt E1BN64); assay: as §4
[20] = as §5; format: functional, Bos taurus
Canis familiaris [21] = organism: Canis familiaris; assay: as §1; format: functional, Canis lupus familiaris
Canis familiaris [22] = assay: as §2; format: functional; settings: Canis lupus familiaris; remark: listed apart in the source
[23] = Felis catus, Muscle tissue, read-out: EC50

Phosphodiesterase 3B, sequence (E1BN64 whole entry): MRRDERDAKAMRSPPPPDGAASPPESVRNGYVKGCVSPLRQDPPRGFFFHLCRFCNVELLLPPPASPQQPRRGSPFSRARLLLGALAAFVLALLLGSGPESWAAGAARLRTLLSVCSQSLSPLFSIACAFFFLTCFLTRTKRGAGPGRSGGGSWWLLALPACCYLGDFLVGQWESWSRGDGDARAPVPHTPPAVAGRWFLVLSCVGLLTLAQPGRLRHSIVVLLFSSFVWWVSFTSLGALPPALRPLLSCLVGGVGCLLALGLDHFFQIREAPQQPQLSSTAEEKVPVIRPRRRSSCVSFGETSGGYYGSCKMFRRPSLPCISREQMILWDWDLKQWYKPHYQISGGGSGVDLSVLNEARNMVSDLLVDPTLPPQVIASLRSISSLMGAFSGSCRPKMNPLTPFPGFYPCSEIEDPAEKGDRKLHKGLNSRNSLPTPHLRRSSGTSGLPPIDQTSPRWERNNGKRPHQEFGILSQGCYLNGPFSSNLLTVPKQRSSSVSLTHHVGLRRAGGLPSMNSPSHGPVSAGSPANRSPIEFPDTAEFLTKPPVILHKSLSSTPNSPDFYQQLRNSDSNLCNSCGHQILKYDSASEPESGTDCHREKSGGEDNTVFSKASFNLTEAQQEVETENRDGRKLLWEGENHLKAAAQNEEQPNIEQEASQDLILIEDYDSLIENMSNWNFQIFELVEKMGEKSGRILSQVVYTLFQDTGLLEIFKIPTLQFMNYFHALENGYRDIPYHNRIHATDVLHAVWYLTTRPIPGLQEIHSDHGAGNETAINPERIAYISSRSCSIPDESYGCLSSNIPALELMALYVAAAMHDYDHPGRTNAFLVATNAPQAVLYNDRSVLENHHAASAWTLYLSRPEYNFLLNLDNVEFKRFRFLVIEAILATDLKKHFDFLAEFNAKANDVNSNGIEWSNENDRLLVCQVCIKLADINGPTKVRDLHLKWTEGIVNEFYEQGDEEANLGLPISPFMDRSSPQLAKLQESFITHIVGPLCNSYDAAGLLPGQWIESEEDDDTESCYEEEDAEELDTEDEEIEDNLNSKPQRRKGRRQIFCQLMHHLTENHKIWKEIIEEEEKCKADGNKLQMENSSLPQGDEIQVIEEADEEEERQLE

Cc1nc(O)c(Br)c(NCc2cccnc2)n1
EC50 (Felis catus [1]): 2.5 µM
Ratio (Felis catus [2]): 97
EC50 (Felis catus [3]; [23]): 3.9 µM
ED20 (Canis familiaris [4]): 0.1 mg/kg
ED50 (Canis familiaris [5]): 0.022 mg/kg
Ratio (Canis familiaris [6]): 2.3 and 4.5
ED20 (Canis familiaris [7]): 0.041 mg/kg
EC50 (Felis catus [8]): 380 uM l-1
IC50 [9]: 15 µM
ED50 (Canis familiaris [10]): 0.012 mg/kg
IC50 [11]: 35 µM
ED50 (Canis familiaris [12]): 0.018 mg/kg

CCCNc1nc(C)nc(O)c1C#N
Ratio (Felis catus [13]): 9
EC50 (Felis catus [3]; [23]): 1.9 µM
EC50 (Felis catus [8]; Felis catus, read-out: EC50): 17 µM

CCNc1nc(C)nc(O)c1[N+](=O)[O-]
Ratio (Felis catus [13]): 9
EC50 (Felis catus [3]; [23]): 25 µM
EC50 (Felis catus [8]): 230 uM l-1

CC(C)(C)c1nc(O)c(C#N)c(NCc2cccnc2)n1
Ratio (Felis catus [13]): 2
EC50 (Felis catus [3]; [23]): 55 µM
EC50 (Felis catus [8]): 110 uM l-1

CCNc1nc(C)nc(O)c1C(C)=O
EC50 (Felis catus [14]): Not Active
EC50 (Felis catus [15]): Not Active

N#Cc1c(O)nc(O)nc1NCc1cccnc1
EC50 (Felis catus [14]): Not Active
EC50 (Felis catus [15]): Not Active

Cc1nc(O)c(C#N)c(NCCc2ccccc2)n1
Ratio (Felis catus [13]): >50
EC50 (Felis catus [3]; [23]): 20 µM
ED20 (Canis familiaris [4]): 0.3 mg/kg
ED50 (Canis familiaris [5]): 0.22 mg/kg
ED20 (Canis familiaris [7]): 0.027 mg/kg
EC50 (Felis catus [8]): > 1000 uM l-1
ED50 (Canis familiaris [16]): 0.07 mg/kg

COc1nc(C)nc(NCc2cccnc2)c1C#N
EC50 (Felis catus [14]): Not Active
EC50 (Felis catus [15]): Not Active

CNc1nc(C)nc(NCc2cccnc2)c1C#N
EC50 (Felis catus [14]): Not Active
EC50 (Felis catus [15]): Not Active

N#Cc1c(O)ncnc1NCc1cccnc1
EC50 (Felis catus [14]): Not Active
EC50 (Felis catus [15]): Not Active

Cc1nc(O)c(C#N)c(NCc2ccncc2)n1
Ratio (Felis catus [13]): 57
EC50 (Felis catus [3]; [23]): 4.4 µM
EC50 (Felis catus [8]): 250 uM l-1

CC(=O)c1c(O)nc(C)nc1NCc1cccnc1
EC50 (Felis catus [14]): Not Active
EC50 (Felis catus [15]): Not Active

Cc1nc(S)c(C#N)c(NCc2cccnc2)n1
Ratio (Felis catus [13]): 6
EC50 (Felis catus [3]; [23]): 14 µM
EC50 (Felis catus [8]; Felis catus, read-out: EC50): 80 µM

Cc1nc(O)c(Br)c(NCCc2ccccc2)n1
Ratio (Felis catus [13]): >164
EC50 (Felis catus [3]; [23]): 6.1 µM
ED20 (Canis familiaris [4]): > 1 mg/kg
ED50 (Canis familiaris [5]): > 1 mg/kg
ED20 (Canis familiaris [7]): < 0.01 mg/kg
EC50 (Felis catus [8]): > 1000 uM l-1
ED50 (Canis familiaris [17]): 0.029 mg/kg

CCNc1nc(C)nc(O)c1Br
Ratio (Felis catus [2]): 102
EC50 (Felis catus [3]; [23]): 4.1 µM
EC50 (Felis catus [3]; read-out: EC50): 2.8 µM
ED50 (Canis familiaris [5]): 0.03 mg/kg
ED20 (Canis familiaris [18]): 0.05 mg/kg
Ratio (Canis familiaris [6]): 1.6
ED20 (Canis familiaris [7]): < 0.003 mg/kg
EC50 (Felis catus [8]): 420 uM l-1
IC50 [9]: 38 µM
ED50 (Canis familiaris [10]): 0.01 mg/kg
Ratio (Canis familiaris [19]): <0.3
ED50 (Canis familiaris [12]): 0.01 mg/kg

Cc1nc(O)c(C#N)c(NCCc2cccnc2)n1
Ratio (Felis catus [13]): 1.3
EC50 (Felis catus [3]): 230 uM l-1
EC50 (Felis catus [8]): 300 uM l-1

Cc1nc(O)c(C#N)c(NCc2ccco2)n1
Ratio (Felis catus [13]): 8.8
EC50 (Felis catus [3]; [23]): 10 µM
EC50 (Felis catus [8]; Felis catus, read-out: EC50): 88 µM

Cc1nc(O)c(C#N)c(NCc2ccccn2)n1
Ratio (Felis catus [13]): 4
EC50 (Felis catus [3]; [23]): 43 µM
EC50 (Felis catus [8]): 180 uM l-1

CCNc1nc(C)nc(O)c1C#N
Ratio (Felis catus [13]): 115
EC50 (Felis catus [3]; [23]): 2.6 µM
ED20 (Canis familiaris [4]): 0.07 mg/kg
ED50 (Canis familiaris [5]): 0.06 mg/kg
ED20 (Canis familiaris [7]): 0.37 mg/kg
EC50 (Felis catus [8]): 300 uM l-1
Ratio (Canis familiaris [19]): 1.4 and 1.2
ED50 (Canis familiaris [16]): 0.027 mg/kg

N#Cc1c(O)nc(-c2ccccc2)nc1NCc1cccnc1
EC50 (Felis catus [14]): Not Active
EC50 (Felis catus [15]): Not Active

Cc1nc(O)c([N+](=O)[O-])c(NCc2cccnc2)n1
Ratio (Felis catus [13]): >189
EC50 (Felis catus [3]; [23]): 5.3 µM
EC50 (Felis catus [8]): > 1000 uM l-1

Cc1nc(O)c(Cl)c(NCCc2ccccc2)n1
Ratio (Felis catus [13]): >833
EC50 (Felis catus [3]; [23]): 1.2 µM
EC50 (Felis catus [8]): > 1000 uM l-1

Cc1nc(Cl)c(C#N)c(NCc2cccnc2)n1
EC50 (Felis catus [14]): Not Active
EC50 (Felis catus [15]): Not Active

Cc1nc(O)c(C#N)c(NCCc2ccccn2)n1
Ratio (Felis catus [13]): 2
EC50 (Felis catus [3]; [23]): 37 µM
EC50 (Felis catus [8]; Felis catus, read-out: EC50): 71 µM

CCc1nc(O)c(C#N)c(NCc2cccnc2)n1
Ratio (Felis catus [13]): 16
EC50 (Felis catus [3]; [23]): 5.5 µM
EC50 (Felis catus [8]; Felis catus, read-out: EC50): 86 µM

Cc1nc(O)c(C#N)c(NCCc2ccncc2)n1
Ratio (Felis catus [13]): 61
EC50 (Felis catus [3]; [23]): 6.5 µM
EC50 (Felis catus [8]): 396 uM l-1

Cc1nc(O)c(C(N)=O)c(NCc2cccnc2)n1
EC50 (Felis catus [14]): Not Active
EC50 (Felis catus [15]): Not Active

N#Cc1c(O)nc(Cc2ccccc2)nc1NCc1cccnc1
Ratio (Felis catus [13]): 14
EC50 (Felis catus [3]; [23]): 72 µM
EC50 (Felis catus [8]): ~ 1000 uM l-1

CSc1nc(C)nc(NCc2cccnc2)c1C#N
EC50 (Felis catus [14]): Not Active
EC50 (Felis catus [15]): Not Active

CSc1ccc(C(=O)c2[nH]c(=O)[nH]c2C)cc1 [ENOXIMONE]
Ratio (Felis catus [13]): 2.2
EC50 (Felis catus [3]; [23]): 90 µM
EC50 (Felis catus [8]): 200 uM l-1

O=C1CCC(c2ccc(-n3ccnc3)cc2)=NN1 [IMAZODAN]
IC50 (Phosphodiesterase 3B): 94 µM
EC50 (Felis catus [3]; [23]): 7 µM
ED50 (Canis familiaris [10]): 0.08 mg/kg
IC50 [20]: 145 µM

Cc1[nH]c(=O)c(C#N)cc1-c1ccncc1 [MILRINONE]
EC50 (Felis catus [1]): 6.5 µM
Ratio (Felis catus [2]): ~39
EC50 (Felis catus [3]; [23]): 7.7 µM
ED20 (Canis familiaris [4]): 0.1 mg/kg
ED50 (Canis familiaris [5]): 0.04 mg/kg
Ratio (Canis familiaris [6]): 2.5
ED20 (Canis familiaris [7]): 0.048 mg/kg
EC50 (Felis catus [8]): ~ 300 uM l-1
IC50 [9]: 28 µM
ED50 (Canis familiaris [10]): 0.02 mg/kg
Ratio (Canis familiaris [19]): 3
IC50 [11]: 192 µM
ED50 (Canis familiaris [12]): 0.016 mg/kg

Cc1nc(=O)c(C#N)c(NCc2cccnc2)[nH]1 [PELRINONE]
EC50 (Felis catus [1]): 5 µM
EC50 (Felis catus [3]; [23]): 5.9 µM
ED50 (Canis familiaris [5]): 0.2 mg/kg
Ratio (Canis familiaris [21]): 36
ED20 (Canis familiaris [22]): > 3 mg/kg
ED20 (Canis familiaris [7]): 0.12 mg/kg
EC50 (Felis catus [8]): 212 uM l-1
IC50 [9]: 36 µM
ED50 (Canis familiaris [10]): 0.03 mg/kg
IC50 [11]: 76 µM
ED50 (Canis familiaris [16]): 0.033 mg/kg
